A word on the IC50: it is the concentration at which inhibition is half-maximal.

For one assay, the target named is T1, Axl enzyme (Homo sapiens, UniProt P30530).
T1 sequence (P30530 26-894): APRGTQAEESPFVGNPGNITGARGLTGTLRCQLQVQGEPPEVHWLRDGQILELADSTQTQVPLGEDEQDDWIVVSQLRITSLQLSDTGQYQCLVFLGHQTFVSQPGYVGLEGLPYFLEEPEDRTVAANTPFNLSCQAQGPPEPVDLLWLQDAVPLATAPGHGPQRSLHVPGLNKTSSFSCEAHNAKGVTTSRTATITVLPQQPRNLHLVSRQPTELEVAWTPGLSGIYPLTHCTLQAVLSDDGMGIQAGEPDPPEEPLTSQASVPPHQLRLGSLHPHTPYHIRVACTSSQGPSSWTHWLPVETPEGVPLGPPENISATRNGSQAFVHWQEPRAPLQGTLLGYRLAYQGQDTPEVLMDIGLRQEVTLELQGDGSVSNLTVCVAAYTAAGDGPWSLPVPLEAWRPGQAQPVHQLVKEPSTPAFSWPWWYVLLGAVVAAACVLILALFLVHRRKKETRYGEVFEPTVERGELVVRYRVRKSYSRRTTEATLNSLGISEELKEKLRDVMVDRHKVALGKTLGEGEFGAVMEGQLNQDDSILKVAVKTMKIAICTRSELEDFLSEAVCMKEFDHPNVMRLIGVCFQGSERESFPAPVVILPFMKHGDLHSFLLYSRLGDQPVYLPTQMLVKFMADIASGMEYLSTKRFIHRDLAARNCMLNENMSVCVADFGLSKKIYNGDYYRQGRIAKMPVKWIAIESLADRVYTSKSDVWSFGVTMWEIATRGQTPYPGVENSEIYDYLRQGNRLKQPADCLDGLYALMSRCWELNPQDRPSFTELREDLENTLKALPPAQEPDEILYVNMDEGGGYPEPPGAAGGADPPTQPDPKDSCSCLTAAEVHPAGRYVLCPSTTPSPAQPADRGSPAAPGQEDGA
The assay can be described thus: Measurement of Axl inhibitory activity (LanthaScreen TR-FRET, in vitro test). Format: biochemical. Conditions: Fluorescein-Poly GT substrate. As for the experimental part:
Axl enzyme inhibitory activity was measured by using LanthaScreen (registered trademark) system (Invitrogen) based on the attached instruction. The reagents used are shown below.
Reaction buffer solution: a solution containing 50 mmol/L HEPES (pH7.5), 0.01% Brij35, 10 mmol/L MgCl2 and 1 mmol/L EGTA was prepared by using purified water.
Test substance solution: a solution containing a test compound of 5-fold concentration with respect to the final concentration was prepared by 20-fold diluting a DMSO solution of test compound of each concentration with the reaction buffer solution.
Enzyme solution: a solution containing 400 ng/mL Axl enzyme was prepared by using the reaction buffer solution.
Substrate solution: a solution containing 45 μmol/L ATP and 500 nmol/L Fluorescein-Poly GT (Invitrogen) was prepared by using the reaction buffer solution.
Detection solution: a solution containing 20 mM EDTA and 4 nM PY20 (Invitrogen) was prepared by using Dilution B (Invitrogen).
A 10 mmol/L DMSO solution of the test compound was dispensed into a 96-well plate (Nunc), and, furthermore, a 3-fold dilution series was prepared using DMSO. In each well of the 96-well plate for measurement, 5 μL each of the reaction buffer solution containing DMSO was added to a Blank group and a medium group, and 5 μL of the test substance solution was added to the test substance group, respectively. Next, 10 μL/well of the reaction buffer solution was added to the Blank group, and 10 μL/well each of the enzyme solution was added to the medium group and the test compound group, followed by stirring at room temperature for 10 min. After the completion of stirring, 10 μL each of the substrate solution was added into each well, followed by stirring at room temperature with light shielded for one hour. After the completion of reaction, 25 μL each of the detection solution was added to each well, and stood still at room temperature with light shielded for 30 min. After standing sill, fluorescence intensity at 520 nm and 495 nm at the time of irradiation with exciting light of 340 nm was measured by using Analyst GT (Molecular Devices). The phosphorylation of the artificial substrate was quantified by Time-resolved Fluorescence Resonance Energy Transfer (TR-FRET). TR-FRET ratio was calculated by dividing 520 nm fluorescence signal by 495 nm fluorescence signal for each well, and the inhibition rate (%) in the test compound group was calculated based on the following mathematical formula. Inhibition rate (%)=[1−(TR-FRET ratio of test compound group−A)/(B−A)×100 [Math. 1] A: average value of TR-FRET ratios of Blank group B: average value of TR-FRET ratios of medium group
Values of 50% inhibition rate (IC50 values) of the test compound were calculated from the inhibition curve based on the inhibition rate of the test compounds in each concentration.
On the technique in general: TR-FRET usually uses a lanthanide donor and a delayed reading to cut background.

For another assay, the target named is T2, Ba/F3 Axl (Homo sapiens, UniProt P30530).
T2 sequence (P30530 1-894): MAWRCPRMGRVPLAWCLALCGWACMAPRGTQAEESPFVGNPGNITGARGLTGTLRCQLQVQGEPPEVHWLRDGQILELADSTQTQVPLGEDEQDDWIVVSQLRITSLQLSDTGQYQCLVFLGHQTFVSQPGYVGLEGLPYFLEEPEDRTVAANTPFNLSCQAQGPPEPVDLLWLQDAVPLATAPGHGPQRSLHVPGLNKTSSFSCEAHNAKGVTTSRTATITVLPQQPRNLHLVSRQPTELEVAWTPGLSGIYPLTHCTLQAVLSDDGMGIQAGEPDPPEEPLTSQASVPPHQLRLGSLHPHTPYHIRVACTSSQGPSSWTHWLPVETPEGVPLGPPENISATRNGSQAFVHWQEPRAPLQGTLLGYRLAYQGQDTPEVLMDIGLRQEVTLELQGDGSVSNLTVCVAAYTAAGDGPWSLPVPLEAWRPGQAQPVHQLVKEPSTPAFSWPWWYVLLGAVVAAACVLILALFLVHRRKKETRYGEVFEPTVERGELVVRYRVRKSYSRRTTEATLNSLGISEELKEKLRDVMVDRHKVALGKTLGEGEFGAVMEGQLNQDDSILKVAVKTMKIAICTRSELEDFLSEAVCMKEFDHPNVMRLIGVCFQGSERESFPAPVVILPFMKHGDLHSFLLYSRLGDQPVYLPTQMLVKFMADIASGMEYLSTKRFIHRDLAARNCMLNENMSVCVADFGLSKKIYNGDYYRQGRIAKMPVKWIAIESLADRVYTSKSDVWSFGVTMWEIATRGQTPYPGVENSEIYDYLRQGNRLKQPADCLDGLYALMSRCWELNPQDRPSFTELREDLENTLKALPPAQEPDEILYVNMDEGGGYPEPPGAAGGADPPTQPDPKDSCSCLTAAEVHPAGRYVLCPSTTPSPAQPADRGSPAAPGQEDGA
The assay can be described thus: Proliferation suppression rate using mouse pro-B cell line (Ba/F3 Axl) stably expressing Axl (CellTiter-Glo). The format is cell-based. Conditions: Ba/F3 Axl cells, 48 hours, read-out: IC50 value of proliferation suppression, Ba/F3 Axl. How it is done:
A 0.1 mmol/L DMSO solution of the test compound was dispensed into a 96-well plate, and a 3-fold dilution series was prepared using DMSO. DMSO solutions of test compounds, having various concentrations, were further 500-fold diluted with a RPMI1640 medium (containing 10% HI-FBS, 1% penicillin) and a diluted solution of the test compound having […] with respect to the final concentration was prepared. In each well of the 96-well plate (BD Biosciences) for measurement, 50 μL of a RPMI medium was added to the Blank group, 50 μL of a RPMI medium containing 0.2% DMSO was added to the medium group, and 50 μL of the diluted solution of the test compound was added to the test compound group, respectively. Ba/F3 Axl was diluted with a medium to have a density of 2×10^5 cells/mL to prepare a cell suspension. In each well of the 96-well plate for measurement, 50 μL each of the RPMI medium was added to the Blank group, and 50 μL each of the cell suspension to the medium group and the test compound group, respectively, and the groups were stood still at 37° C. at 5% CO2 for 48 hours. After standing still, Relative Light Unit (RLU) was measured by using CELLTITER-GLO (registered trademark) LUMINESCENT CELL VIABILITY ASSAY (Promega). The measurement was carried out according to the attached instruction. To each well, 100 μL each of light-emitting solution was added. The plate was stirred at room temperature for 3 min and then stool still at room temperature with light shielded for 10 min, and RLU was measured by using Microplate Reader (SpectraMax M5e, Molecular Devices). The average values of RLU of the Blank group and the medium group were respectively calculated, and the proliferation suppression rate of the test compound group was calculated. Proliferation suppression rate (%)={1−(RLU of test compound group−A)/(B−A)}×100 [Math. 2] A: average value of RLU of Blank group B: average value of RLU of medium group
A value of 50% inhibition rate (IC50 value) of the test compound was calculated from the inhibition curve based on the inhibition rate in each concentration of the test compound.

Another assay concerns the target KDR kinase (Homo sapiens, UniProt P35968). Put plainly: Evaluation of kinase selectivity (KDR kinase IC50 versus Axl IC50, in vitro test). The format is biochemical. Conditions: Axl selective inhibitory activity with respect to KDR kinase, ratio of IC50 values. As for the experimental part: Similar to Biological Example 1, values of 50% inhibition rate (IC50 value) with respect to the KDR kinase of the test compound was measured. The Axl selective inhibitory activity of the test compound with respect to KDR kinase was calculated based on the above-mentioned ratio of the IC50 values. As the test compounds, for the compounds of the present invention, the compounds of Examples 21, 42, 66, and 28 were used, and for the comparative compounds, the compound of Example 74 (Comparative compound B) and the compound of Example 92 (Comparative compound C) described in Patent Literature 5, having the following structure, were used.

Sequence of KDR kinase (P35968 20-1356): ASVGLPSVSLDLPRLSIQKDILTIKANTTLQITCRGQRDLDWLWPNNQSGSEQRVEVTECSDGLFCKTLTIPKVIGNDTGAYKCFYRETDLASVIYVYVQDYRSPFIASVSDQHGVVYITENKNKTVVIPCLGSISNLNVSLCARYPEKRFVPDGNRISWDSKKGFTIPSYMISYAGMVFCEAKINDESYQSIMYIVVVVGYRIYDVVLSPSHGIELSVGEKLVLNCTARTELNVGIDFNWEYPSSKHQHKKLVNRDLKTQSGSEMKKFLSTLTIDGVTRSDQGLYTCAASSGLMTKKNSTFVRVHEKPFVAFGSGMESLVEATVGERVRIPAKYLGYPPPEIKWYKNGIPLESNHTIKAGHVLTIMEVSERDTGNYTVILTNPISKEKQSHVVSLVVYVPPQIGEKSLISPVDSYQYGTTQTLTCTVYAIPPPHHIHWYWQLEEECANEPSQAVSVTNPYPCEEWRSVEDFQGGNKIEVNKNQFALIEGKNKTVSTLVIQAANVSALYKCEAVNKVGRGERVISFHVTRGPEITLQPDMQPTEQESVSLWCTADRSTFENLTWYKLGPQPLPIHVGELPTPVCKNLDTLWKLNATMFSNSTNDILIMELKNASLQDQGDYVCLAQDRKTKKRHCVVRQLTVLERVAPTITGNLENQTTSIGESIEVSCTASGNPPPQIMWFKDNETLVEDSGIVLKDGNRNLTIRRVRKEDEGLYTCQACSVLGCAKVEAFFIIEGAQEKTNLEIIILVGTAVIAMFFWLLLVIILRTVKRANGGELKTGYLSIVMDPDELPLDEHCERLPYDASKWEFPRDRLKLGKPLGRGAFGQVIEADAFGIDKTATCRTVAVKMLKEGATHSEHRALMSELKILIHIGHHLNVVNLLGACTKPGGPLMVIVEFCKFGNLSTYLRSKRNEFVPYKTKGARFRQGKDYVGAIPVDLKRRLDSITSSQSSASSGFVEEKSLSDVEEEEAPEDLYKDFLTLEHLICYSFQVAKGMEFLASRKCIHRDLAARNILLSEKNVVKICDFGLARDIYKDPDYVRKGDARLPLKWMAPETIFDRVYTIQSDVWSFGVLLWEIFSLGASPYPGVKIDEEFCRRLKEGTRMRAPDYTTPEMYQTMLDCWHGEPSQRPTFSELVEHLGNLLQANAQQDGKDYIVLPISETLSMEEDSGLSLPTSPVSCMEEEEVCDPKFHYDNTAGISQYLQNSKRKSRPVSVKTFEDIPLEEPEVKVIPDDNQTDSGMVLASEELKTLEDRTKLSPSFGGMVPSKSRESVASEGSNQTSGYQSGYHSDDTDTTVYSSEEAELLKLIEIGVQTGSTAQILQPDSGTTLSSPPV

On to `COc1cc2nccc(Oc3ccc(NC(=O)c4cc5ccccc5[nH]c4=O)cc3)c2cc1OC` [Comparative compound A, reference compound], for which the IC50 on Axl enzyme was greater than 10000 nM. For the same compound, the GI50 at Ba/F3 Axl was greater than 10000 nM.
For `COc1cc2c(Oc3ccc(NC(=O)c4cccc5cccnc45)cc3F)ccnc2cc1OCCCN1CCOCC1` [Comparative compound B, reference compound], the “KDR [IC50]/Ax1 [IC50]” value on KDR kinase is “about 0.2 times”.
`COc1cc2c(Oc3ccc(NC(=O)c4ccnn(-c5ccc(F)cc5)c4=O)cn3)ccnc2cc1OCCCN1CCOCC1` [Comparative compound C, reference compound]: at KDR kinase, the “KDR [IC50]/Ax1 [IC50]” value is reported as “about 28 times”.
`CC#CC(=O)N1CCc2cc(C(=O)Nc3ccc(Oc4ccnc5cc(OC)c(OC)cc45)cn3)c(=O)n(-c3ccccc3)c2C1` [Example 36, 7-(2-butynoyl)-N-{5-[(6,7-dimethoxy-4-quinolinyl)oxy]-2-pyridinyl}-2-oxo-1-phenyl-1,2,5,6,7,8-hexahydro-1,7-naphthyridine-3-carboxamide] had an IC50 against Axl enzyme of 1.5 nM. The GI50 at Ba/F3 Axl stood at 0.47 nM.
On the same counts, the results for `COc1cc2nccc(Oc3ccc(NC(=O)c4cc5ccc(N)cc5n(-c5ccccc5)c4=O)nc3)c2cc1OC` [Example 73, 7-amino-N-{5-[(6,7-dimethoxy-4-quinolinyl)oxy]-2-pyridinyl}-2-oxo-1-phenyl-1,2-dihydro-3-quinolinecarboxamide] are 4 nM and 0.76 nM.

Values taken from patent US10208034B2, “Quinoline derivative” (ONO PHARMACEUTICAL CO., LTD., priority 2014, dated 2019).
